Experiments:
[1] = tested on: Madin Darby canine kidney (MDCK) cells; format: cell-based; conditions: 18 h
SKOV3 tumors = test: Induction of apoptosis in SKOV3 tumors in nude mice (Apoptag); format: in vivo, mouse
Procedure: SKOV3 cells (ATCC) were grown to 70% confluence in Minimum Essential Medium (Life Technologies, Grand Island, N.Y.) supplemented with 10% Fetal Bovine Serum (Wisent, St. Bruno, Quebec) in a humidified atmosphere containing 5% CO2. Cells were then dissociated with 0.02% PBS/EDTA. Total cell count and viable cell number was determined by trypan blue stain and a hemacytometer.
Approximately 1×10^7 cells were resuspended in 400 μl saline and injected in 6-week-old CD-1 nude mice (female, Charles River) subcutaneously. After 20 days of continuous tumor growth, tumor size was about 4.0 mm. The tumor-bearing animals were then injected intraperitoneally every day with 20 mg/kg of the representative peptide modulating agent N—Ac-CHAVC-NH2 (SEQ ID NO:10) or saline, for 48 hours, 96 hours, 120 hours or 168 hours. […]
Tumor tissue was dissected and fixed in PBS with 4% paraformaldehyde for 48 hours. Specimens were then dehydrated in a series of alcohol incubations, and embedded in paraffin wax. Apoptosis was assessed using the Apoptag kit (Intergen, Purchase N.Y.) according to the manufacturer's protocol, with slight modifications. More specifically, sections were deparaffinized and re-hydrated. After a five minute wash with PBS, the slides were treated with 20 μg/ml Proteinase K in PBS for 15 minutes at room temperature. This was followed by two washes with distilled water (2 minutes each wash). […]

[2] = tested on: Human saphenous vein vascular smooth muscle cells; test: Vascular smooth muscle cell apoptosis and death in aggregates (agarose-coated wells); format: cell-based; conditions: 0.5 mg/mL
Procedure: Human saphenous vein vascular smooth muscle cells were explanted from surplus segments of vein from patients undergoing coronary artery bypass surgery. Cells were maintained in Dulbecco's modified essential medium supplemented with […], 2 mmol/L L-glutamine and 10% fetal calf serum and were grown in agarose-coated wells. Under these conditions the cells are unable to attach to the underlying substratum and adhere to one another by cell-cell contacts only, forming aggregates. The percentage of dead cells was assessed by staining with Trypan blue or by fixing the cells and staining with Hoescht (H-33342). Trypan blue stain is absorbed only by non-viable cells when the integrity of the cell membrane is breached (Freshney, R. (1987) Culture of Animal Cells: A Manual of Basic Technique, p. 117, Alan R. Liss, Inc., New York) whereas Hoescht stain enters living cells (Shapiro (1981) Cytometry 2, 143-150).

[3] = tested on: 3T3 cells not expressing N-cadherin, N-CAM, or L1 (control cells); test: Neurite outgrowth on control 3T3 monolayers (Example 2); format: cell-based, mouse; conditions: 500 μg/ml
Procedure: Neurons were cultured on monolayers of 3T3 cells transfected with cDNA encoding N-cadherin essentially as described by Doherty and Walsh, Curr. Op. Neurobiol. 4:49-55, 1994; Williams et al., Neuron 13:583-594, 1994; Hall et al., Cell Adhesion and Commun. 3:441-450, 1996; Doherty and Walsh, Mol. Cell. Neurosci. 8:99-111, 1994; Safell et al., Neuron 18:231-242, 1997. Briefly, monolayers of control 3T3 fibroblasts and 3T3 fibroblasts that express N-cadherin were established by overnight culture of 80,000 cells in individual wells of an 8-chamber well tissue culture slide. 3000 cerebellar neurons isolated from post-natal day 3 mouse brains were cultured for 18 hours on the various monolayers in control media (SATO/2%FCS), or media supplemented with various concentrations of the cyclic peptide N—Ac-CHAVC-NH2 (SEQ ID NO:10) or a control peptide without the HAV sequence (N—Ac-CHGVC-NH2; SEQ ID NO:11). The cultures were then fixed and stained for GAP43, which specifically binds to the neurons and their neurites. The length of the longest neurite on each GAP43 positive neuron was then measured by computer assisted morphometry.

L1 [4] = target: T1, L1 (Homo sapiens, UniProt P32004); test: Neurite outgrowth on L1 expressing 3T3 monolayers (Example 2); format: cell-based, mouse; design: expressed in transfected cells; host or cells: 3T3 fibroblasts (monolayer); mouse post-natal day 3 cerebellar neurons on top; conditions: 500 μg/mL
T1 sequence (P32004 20-1257): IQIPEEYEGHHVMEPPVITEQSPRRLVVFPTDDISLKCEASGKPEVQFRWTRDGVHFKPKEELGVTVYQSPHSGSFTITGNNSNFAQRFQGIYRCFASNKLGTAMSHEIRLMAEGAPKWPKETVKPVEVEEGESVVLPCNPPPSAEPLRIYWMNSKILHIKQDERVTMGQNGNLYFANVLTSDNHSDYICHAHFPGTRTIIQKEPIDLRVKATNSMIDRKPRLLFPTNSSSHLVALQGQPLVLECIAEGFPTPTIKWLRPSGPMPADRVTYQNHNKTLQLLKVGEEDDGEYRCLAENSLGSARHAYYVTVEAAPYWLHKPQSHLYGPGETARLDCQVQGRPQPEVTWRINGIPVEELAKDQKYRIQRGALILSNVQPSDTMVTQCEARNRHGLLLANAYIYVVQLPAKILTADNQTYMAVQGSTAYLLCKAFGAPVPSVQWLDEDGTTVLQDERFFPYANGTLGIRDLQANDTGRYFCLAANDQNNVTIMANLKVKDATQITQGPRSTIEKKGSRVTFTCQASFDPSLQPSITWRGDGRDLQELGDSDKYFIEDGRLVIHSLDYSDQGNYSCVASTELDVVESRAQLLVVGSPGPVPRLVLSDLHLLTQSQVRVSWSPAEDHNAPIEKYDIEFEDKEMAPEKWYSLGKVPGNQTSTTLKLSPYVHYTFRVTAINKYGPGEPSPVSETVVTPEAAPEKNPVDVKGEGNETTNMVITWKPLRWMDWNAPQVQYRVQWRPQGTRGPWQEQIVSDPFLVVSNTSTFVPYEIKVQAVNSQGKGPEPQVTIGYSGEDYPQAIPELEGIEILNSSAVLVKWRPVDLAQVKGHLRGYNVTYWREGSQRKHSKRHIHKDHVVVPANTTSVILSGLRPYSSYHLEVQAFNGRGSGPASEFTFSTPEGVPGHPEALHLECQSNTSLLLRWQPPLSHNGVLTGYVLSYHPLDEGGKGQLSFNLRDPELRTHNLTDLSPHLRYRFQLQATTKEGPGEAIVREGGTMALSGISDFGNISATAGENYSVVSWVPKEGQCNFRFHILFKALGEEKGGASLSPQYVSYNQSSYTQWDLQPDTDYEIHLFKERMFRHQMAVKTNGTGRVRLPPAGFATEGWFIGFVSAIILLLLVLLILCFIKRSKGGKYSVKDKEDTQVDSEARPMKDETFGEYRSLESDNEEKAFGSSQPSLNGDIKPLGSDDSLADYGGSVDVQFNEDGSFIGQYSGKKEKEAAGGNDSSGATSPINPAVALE

L1 [5] = target: T1, L1; test: Neurite outgrowth of rat cerebellar neurons on L1 expressing 3T3 monolayers (Example 15); format: cell-based; design: expressed in transfected cells; rat cerebellar neurons on top; conditions: 125 μg/ml; read-out: % Inhibition of L1 Response
Procedure: Cell culture and neurite outgrowth assays. Co-cultures of cerebellar neurons on monolayers of control 3T3 cells and monolayers of transfected 3T3 cells that express physiological levels of chick N-cadherin or human L1 were established as previously described (Williams et al., Neuron 13:583-594, 1994). In brief, 80,000 3T3 cells (control and transfected) were plated into individual chambers of an eight-chamber tissue culture slide coated with polylysine and fibronectin and cultured in DMEM/10% FCS. After 24 hours, when confluent monolayers had formed, the medium was removed and 3000 cerebellar neurons isolated from post-natal day 2-3 rats were plated into each well in SATO media (Doherty et al., Nature 343:464-466, 1990) supplemented with 2% FCS. All of the test peptides were added immediately before the neurons as a 2× stock prepared in SATO/2% FCS. The co-cultures were maintained for 16-18 hours, at which time they were fixed and immunostained for GAP-43 which is present only in the neurons and delineates the neuritic processes. The mean length of the longest neurite per cell was measured for 150-200 neurons sampled in replicate cultures as previously described (Williams et al., Neuron 13:583-594, 1994). […] Dose-response curves were evaluated and the EC50 values determined.
Other cell adhesion molecules, such as L1, can stimulate neurite outgrowth, and this response shares the same downstream signaling steps as the N-cadherin response. […] As previously reported, L1 stimulated neurite outgrowth from cerebellar neurons.

CC(=O)N[C@H]1CSSC[C@@H](C(N)=O)NC(=O)[C@H](C(C)C)NC(=O)[C@H](C)NC(=O)[C@H](Cc2c[nH]cn2)NC1=O [N—Ac—CHAVC—NH2, N-Ac-Cys-His-Ala-Val-Cys-NH2]
EC50 [1]: 270 µM
apoptotic cells in tumor sections (SKOV3 tumors; 20 mg/kg ip every day for 48, 96, 120 or 168 hours): show an increase in apoptotic cells with longer treatment
apoptotic cells in tumor sections (SKOV3 tumors; 20 mg/kg once daily for four days, sacrificed 11 days after the last treatment): extensive area of apoptotic cells within the center of the tumor
aggregation of vascular smooth muscle cells [2]: inhibits aggregation
increase in apoptosis and cell death in aggregates ([2]; 24 hr, n=4, p<0.05): 2 fold
inhibition of neurite outgrowth on control 3T3 cells [3]: did not inhibit neurite outgrowth
inhibition of neurite outgrowth on 3T3 cells expressing L1 (L1 [4]): did not inhibit neurite outgrowth
inhibition at 125 µg/mL (L1 [5]): 41.6 ± 8.6%
